pKd: −log10 of the molar value.
Molecular target: T1, ArrMab (Mycobacteroides abscessus, UniProt B1MH05)
T1 construct: gene MAB_0591; N-terminal 6xHis tag (pET28), expressed in E. coli T7 Express; RED-NHS amine-labelled for MST
Test: microscale thermophoresis
Type: binding
Excerpt: microscale thermophoresis on ArrMab | ArrMab bound both antibiotics with the same Kd

T1 sequence (B1MH05 entry or part of it): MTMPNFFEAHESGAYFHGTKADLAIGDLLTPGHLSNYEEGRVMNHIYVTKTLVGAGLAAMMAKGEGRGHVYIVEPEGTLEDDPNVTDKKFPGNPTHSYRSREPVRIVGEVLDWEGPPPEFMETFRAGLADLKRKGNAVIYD

How did the pKd turn out when CO[C@H]1/C=C/O[C@@]2(C)Oc3c(C)c(O)c4c(O)c(c(/C=N/N5CCN(C)CC5)c(O)c4c3C2=O)NC(=O)/C(C)=C\C=C\[C@H](C)[C@H](O)[C@@H](C)[C@@H](O)[C@@H](C)[C@H](OC(C)=O)[C@@H]1C [rifampicin] was run?
The pKd was 4.55.

From article PMC8597724, “Kanglemycin A Can Overcome Rifamycin Resistance Caused by ADP-Ribosylation by Arr Protein” (Antimicrobial Agents and Chemotherapy, 2021)
